Where two headings read alike, the source gives them in different places.
Experiments:
delF508-CFTR [1] = target: T1, delF508-CFTR (Homo sapiens, UniProt P13569, DEL508-508); assay: Measurement of delF508-CFTR-HRP surface expression in CFBE41o- cells; assay type: cell-based; conditions: for EC50: HRP-tagged delF508-CFTR surface expression, CFBE41o- cells, 24 h with compound, 10-point curve, highest concentration 10 μM; for Emax: CFBE41o-, read-out: DelF508-CFTR-HRP Amax %
T1 construct: expressed in transfected cells
Outline: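 CFBE41o- cells stably expressing delF508-CFTR with HRP in the fourth extracellular loop, induced 48 h with 500 ng/mL doxycycline, then exposed to compound (10-point, 3-fold, top 10 μM, ≤0.5% DMSO) for 24 h at 37° C. Surface HRP read by luminescence with cell-impermeant substrate; EC50 by logistic fit, triplicates, efficacy relative to reference corrector.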

delF508-CFTR [2] = target: T1, delF508-CFTR; assay: Measurement of delF508-CFTR functional activity in primary human bronchial epithelial cells (HBECs) using MTECC-24 assay; assay type: cell-based; conditions: for EC50: primary human delF508-CFTR bronchial epithelial cells, 24 hr compound treatment, equivalent short circuit current, forskolin and potentiator, mean of at least two replicates, read-out: MTECC24 CFHBEC EC50; for MTECC24 CFHBEC Amax %: test compound (24 h) with potentiator (S)-3-amino-6-methoxy-N-(3,3,3-trifluoro-2-hydroxy-2-methylpropyl)-5-(trifluoromethyl)picolinamide, relative to 2 μM 3-(6-(1-(2,2-difluorobenzo[d][1,3]dioxol-5-yl)cyclopropane-1-carboxamido)-3-methylpyridin-2-yl)benzoic acid plus 0.5 μM N-(2,4-di-tert-butyl-5-hydroxyphenyl)-4-oxo-1,4-dihydroquinoline-3-carboxamide
Description: Measurement of delF508-CFTR Functional Activity in Primary Human Bronchial Epithelial Cells (HBECs) Using Multi-Transepithelial Clamp Circuit (MTECC-24) Assay
This assay measures the functional activity of the CFTR channel (Chloride ion transport) in patient derived primary human bronchial epithilial cells with forskolin activation and in the presence of the CFTR corrector/potentiator combination.
Primary human delF508-CFTR bronchial epithelial cells were and cultured according to previously established methods (Neuberger, T. et, al., Methods in Molecular Biology, 2011, 741, pp 39-54). Briefly, before thawing the HBEC cells, T25 flasks were coated with 2 mL of 3T3 conditioned media (MTI-GlobalStem, Cat #GSM9100) for at least 12 hours in 37° C. CO2 incubator. 1.7×10^5 cells were seeded into one T25 flask with 5 mL of HBE growth media (BEBM with supplements (Lonza, Cat #CC-3170) with 10 nM of retinoic acid (Sigma, Cat #R-2625) and 1% of PSA (Hyclone, Cat #SV30079.01). Media was changed every day till the cells were 100% confluent. Cells were seeded into T75 flasks (pre-coated with 5 mL of 3T3 conditioned media for more than 12 hrs) at 4.95×10^5 cells/T75 flask in 15 mL of HBE growth media. Flasks were fed everyday with fresh HBE growth media until the cells were confluent. 24-well transwell plates (Corning, Cat #3378) were coated with 3T3 conditioned media (70 μL on top of the filter, 350 μL to the bottom of the well) overnight in the 37° C. CO2 incubator. Cells were seeded in the pre-coated 24-well transwell plates at 1.7×10^5 cell/well with 700 μL of growth media at the bottom of the well and 200 μL of growth media at the top of the filter. After 24 hrs, cells were switched into HBE differentiation media ((DMEM/F12 (Gibco, Cat #11330-032) supplement with 2% Ultroser G (Pall, Cat #15950-017), 2% of Fetal Clone II (Hyclone, Cat #SH30066.03), 0.25% Bovine Brain Extract (Lonza, Cat #CC-4098), 1% of PSA, 2.5 μg/mL of Insulin (Sigma, Cat #19278), 20 nM of Hydrocortisone (Sigma, Cat #H0888), 500 nM of Triiodothyronine (Sigma, Cat #T6397), 2.5 μg/mL of Transferrin (Sigma, Cat #T8158), 250 nM of Ethanolamine (Sigma, Cat #E0135), 1.5 μM of Epinephrine (Sigma, Cat #E4250), 250 nM of Phosphoethanolamine (Sigma, Cat #P0503), 10 nM of retinoic acid)) with 200 μL on top of the filter (apical side) and 700 μL at the bottom of the well (basolateral side). Cells were fed every other day with the differentiation media. After 4 days, cells were exposed to air/liquid interface. Then cells were fed every other day for 4 weeks before fully differentiated.
Cells were washed with 3 mM DTT in PBS at 70 ul/well for 30 min at 37° C. 6 days before the assay. 3 days before the assay, cells were washed again with PBS at 70 ul/well for 30 min at 37° C. Then cells were treated with compound for 24 hrs before the assay.
Following 24 hr treatment with compound, cells were transferred into plates containing 750 ul of assay media on basolateral side and 250 ul on apical side (Assay medium: F-12 Coon's modified, 20 mM HEPES pH7.4 with TRIS Base, No FCS or bicarbonate). The plates wee then transferred to the heated plate compartments (basolateral buffer temperature ˜36.5° C. on the heating block) of the TECC24 system for 45 mins prior to measurements.
Modulators were added sequentially as follows while the TECC24 instrument recorded the equivalent short circuit current (Ieq):
Prior to dilution into assay medium the stocks were as follows: Benzamil stock: 10 mM in DMSO
Forskolin Stock: 50 mM in DMSO
N-(2,4-di-tert-butyl-5-hydroxyphenyl)-1,4-dihydro-4-oxoquinoline-3-carboxamide: 50 mM in DMSO (S)-3-amino-6-methoxy-N-(3,3,3-trifluoro-2-hydroxy-2-methylpropyl)-5-(trifluoromethyl)picolinamide: 50 mM stock 100% DMSO Bumetanide stock: 20 mM in EtOH
The data was normalized using the median signal from wells treated with 0.1% DMSO as a baseline. Curve fitting and EC50 calculations were performed using the following equation: […]

[3] = efficacy relative to reference compound 3-(6-(1-(2,2-difluorobenzo[d][1,3]dioxol-5-yl)cyclopropane-1-carboxamido)-3-methylpyridin-2-yl)benzoic acid

T1 sequence (P13569 with tags, fused parts or gaps DEL508-508): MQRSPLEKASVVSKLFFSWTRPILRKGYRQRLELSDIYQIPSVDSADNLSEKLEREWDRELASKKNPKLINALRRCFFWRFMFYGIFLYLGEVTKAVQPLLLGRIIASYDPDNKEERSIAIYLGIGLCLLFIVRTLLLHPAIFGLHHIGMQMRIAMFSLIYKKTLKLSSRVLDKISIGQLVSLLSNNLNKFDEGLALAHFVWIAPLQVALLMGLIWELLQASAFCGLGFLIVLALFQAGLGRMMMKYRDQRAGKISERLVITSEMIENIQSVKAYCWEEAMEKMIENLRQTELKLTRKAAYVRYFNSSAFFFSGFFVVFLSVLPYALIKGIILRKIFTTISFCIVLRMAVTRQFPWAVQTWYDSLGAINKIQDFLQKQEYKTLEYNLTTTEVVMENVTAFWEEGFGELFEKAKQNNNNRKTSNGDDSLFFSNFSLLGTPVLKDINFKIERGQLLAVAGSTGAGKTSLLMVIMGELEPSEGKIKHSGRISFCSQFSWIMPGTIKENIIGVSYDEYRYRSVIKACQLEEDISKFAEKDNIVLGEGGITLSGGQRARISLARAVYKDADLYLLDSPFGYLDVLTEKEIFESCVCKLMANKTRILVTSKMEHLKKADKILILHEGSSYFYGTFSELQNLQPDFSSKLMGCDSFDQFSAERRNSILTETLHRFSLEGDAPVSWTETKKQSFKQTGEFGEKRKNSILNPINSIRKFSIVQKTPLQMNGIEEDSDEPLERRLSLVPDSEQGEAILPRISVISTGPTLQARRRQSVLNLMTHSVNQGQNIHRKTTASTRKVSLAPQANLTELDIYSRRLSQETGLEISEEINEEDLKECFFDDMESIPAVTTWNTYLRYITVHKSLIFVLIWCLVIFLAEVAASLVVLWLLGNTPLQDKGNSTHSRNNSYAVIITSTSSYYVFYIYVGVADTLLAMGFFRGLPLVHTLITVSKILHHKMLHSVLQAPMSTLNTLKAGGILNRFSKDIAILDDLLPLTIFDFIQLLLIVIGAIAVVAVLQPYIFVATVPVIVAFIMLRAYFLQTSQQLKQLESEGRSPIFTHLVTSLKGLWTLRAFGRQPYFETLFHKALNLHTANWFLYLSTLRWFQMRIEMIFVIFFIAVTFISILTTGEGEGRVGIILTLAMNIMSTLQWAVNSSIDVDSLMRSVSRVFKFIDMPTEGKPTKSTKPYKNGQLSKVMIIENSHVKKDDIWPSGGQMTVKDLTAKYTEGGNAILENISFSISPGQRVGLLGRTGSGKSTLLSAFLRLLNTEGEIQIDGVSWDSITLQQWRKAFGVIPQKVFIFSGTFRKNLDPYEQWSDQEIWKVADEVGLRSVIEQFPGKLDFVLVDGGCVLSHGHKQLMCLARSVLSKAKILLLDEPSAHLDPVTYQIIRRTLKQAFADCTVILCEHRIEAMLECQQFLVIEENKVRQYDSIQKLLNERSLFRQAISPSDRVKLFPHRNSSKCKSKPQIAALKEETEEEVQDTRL

O=S1(=O)Nc2ccc(C(F)(F)F)c(n2)-c2ccccc2C=CCCC(CCCO)Oc2cccc1n2 (stereo not drawn)
ring closure, isolated yield (from C=CCCC(CCCO)Oc1cccc(S(=O)(=O)Nc2ccc(C(F)(F)F)c(-c3ccccc3C=C)n2)n1, rcm bond, 16-membered ring, Grubbs II (10 mol%), DCM, 3.68 mM, 45.0 °C): 95%

O=S1(=O)Nc2ccc(C(F)(F)F)c(n2)-c2ccccc2C=CCCCCN(CCCCCO)c2cccc1n2
ring closure, isolated yield (from C=CCCCCN(CCCCCO)c1cccc(S(=O)(=O)Nc2ccc(C(F)(F)F)c(-c3ccccc3C=C)n2)n1, rcm bond, 17-membered ring, Grubbs II (20 mol%), DCM (or DCE), 1.85 mM, 55.0 °C): 94%

O=S1(=O)Nc2ccc(C(F)(F)F)c(n2)-c2ccccc2C=CCCN(CCO)c2cccc1n2
ring closure, isolated yield (from C=CCCN(CCO)c1cccc(S(=O)(=O)Nc2ccc(C(F)(F)F)c(-c3ccccc3C=C)n2)n1, rcm bond, 15-membered ring, Grubbs II (two portions), DCM, 2.1 mM, 45.0 °C): 91%

3-(4,4-dioxido-2^3-(trifluoromethyl)-9-oxa-4-thia-3,6-diaza-2,5(2,6)-dipyridina-1(1,2)-benzenacyclododecaphane-6-yl)propanoic acid [Compound 98]
EC50 (delF508-CFTR [1]): 2030 nM
DelF508-CFTR-HRP Amax % (delF508-CFTR [1]; [3]): 719.0%
EC50 (delF508-CFTR [2]): 100 nM
MTECC24 CFHBEC Amax % (delF508-CFTR [2]): 69.2%

CC(C)(CO)CN1CCCCCc2ccccc2-c2nc(ccc2C(F)(F)F)NS(=O)(=O)c2cccc1n2 [Compound 27, 6-(3-hydroxy-2,2-dimethylpropyl)-2^3-(trifluoromethyl)-4-thia-3,6-diaza-2,5(2,6)-dipyridina-1(1,2)-benzenacycloundecaphane 4,4-dioxide]
Emax (delF508-CFTR [1]; [3]): 829%
EC50 (delF508-CFTR [1]): 177 nM
EC50 (delF508-CFTR [2]): 3.1 nM
MTECC24 CFHBEC Amax % (delF508-CFTR [2]): 132.0%

CC(C)(CO)CN1CCCCCCc2ccccc2-c2nc(ccc2C(F)(F)F)NS(=O)(=O)c2cccc1n2 [Compound 28, 6-(3-hydroxy-2,2-dimethylpropyl)-2^3-(trifluoromethyl)-4-thia-3,6-diaza-2,5(2,6)-dipyridina-1(1,2)-benzenacyclododecaphane 4,4-dioxide]
EC50 (delF508-CFTR [1]): 66 nM
EC50 (delF508-CFTR [2]): 0.9 nM
MTECC24 CFHBEC Amax % (delF508-CFTR [2]): 171.1%

O=C(O)CCN1CCCCCc2ccccc2-c2nc(ccc2Cl)NS(=O)(=O)c2cccc1n2 [Compound 89, 3-(2^3-chloro-4,4-dioxido-4-thia-3,6-diaza-2,5(2,6)-dipyridina-1(1,2)-benzenacycloundecaphane-6-yl)propanoic acid]
Emax (delF508-CFTR [1]; [3]): 858%
EC50 (delF508-CFTR [1]): 1180 nM
EC50 (delF508-CFTR [2]): 30.9 nM
MTECC24 CFHBEC Amax % (delF508-CFTR [2]): 56.7%

O=C(O)CCCN1CCCCc2ccccc2-c2nc(ccc2C(F)(F)F)NS(=O)(=O)c2cccc1n2 [Compound 90, 4-(4,4-dioxido-2^3-(trifluoromethyl)-4-thia-3,6-diaza-2,5(2,6)-dipyridina-1(1,2)-benzenacyclodecaphane-6-yl)butanoic acid]
Emax (delF508-CFTR [1]; [3]): 674%
EC50 (delF508-CFTR [1]): 919 nM
EC50 (delF508-CFTR [2]): 4.6 nM
MTECC24 CFHBEC Amax % (delF508-CFTR [2]): 123.2%

O=C(O)CCN1CCCCCc2ccccc2-c2nc(ccc2C(F)(F)F)NS(=O)(=O)c2cccc1n2 [Compound 92, 3-(4,4-dioxido-2^3-(trifluoromethyl)-4-thia-3,6-diaza-2,5(2,6)-dipyridina-1(1,2)-benzenacycloundecaphane-6-yl)propanoic acid]
Emax (delF508-CFTR [1]; [3]): 982%
EC50 (delF508-CFTR [1]): 694 nM
EC50 (delF508-CFTR [2]): 6.9 nM
MTECC24 CFHBEC Amax % (delF508-CFTR [2]): 90.0%

CC(C)(CN1CCCCCCc2ccccc2-c2nc(ccc2C(F)(F)F)NS(=O)(=O)c2cccc1n2)C(=O)O [Compound 99, 3-(4,4-dioxido-2^3-(trifluoromethyl)-4-thia-3,6-diaza-2,5(2,6)-dipyridina-1(1,2)-benzenacyclododecaphane-6-yl)-2,2-dimethylpropanoic acid]
EC50 (delF508-CFTR [1]): 230 nM
EC50 (delF508-CFTR [2]): 0.8 nM
MTECC24 CFHBEC Amax % (delF508-CFTR [2]): 279.3%

CC(C)(CN1CCCCCc2ccccc2-c2nc(ccc2C(F)(F)F)NS(=O)(=O)c2cccc1n2)C(=O)O [Compound 100, 3-(4,4-dioxido-2^3-(trifluoromethyl)-4-thia-3,6-diaza-2,5(2,6)-dipyridina-1(1,2)-benzenacycloundecaphane-6-yl)-2,2-dimethylpropanoic acid]
EC50 (delF508-CFTR [1]): 351 nM
EC50 (delF508-CFTR [2]): 4.3 nM
MTECC24 CFHBEC Amax % (delF508-CFTR [2]): 175.8%

O=S1(=O)Nc2ccc(C(F)(F)F)c(n2)-c2ccccc2CCCCCN(CCO)c2cccc1n2 [Compound 117, 6-(2-hydroxyethyl)-2^3-(trifluoromethyl)-4-thia-3,6-diaza-2,5(2,6)-dipyridina-1(1,2)-benzenacycloundecaphane 4,4-dioxide]
EC50 (delF508-CFTR [1]): 391 nM
EC50 (delF508-CFTR [2]): 1 nM
MTECC24 CFHBEC Amax % (delF508-CFTR [2]): 213.1%

tert-butyl 4-(4,4-dioxido-2^3-(trifluoromethyl)-10-oxa-4-thia-3,6-diaza-2,5(2,6)-dipyridina-1(1,2)-benzenacycloundecaphane-6-yl)butanoate
ring closure, isolated yield (snar bond, 16-membered ring, DIEA, NMP, 40.0 mM, 135.0 °C): 75%

Source: patent publication US20220071971A1, “MACROCYCLIC COMPOUNDS AND THEIR USE IN THE TREATMENT OF DISEASE” (NOVARTIS AG, priority 2018, published 2022)
